Experiments:
[1] = Liquid-liquid extraction of mono-salt saline solution
Description: The extracting composition is obtained by solubilizing an amount of CEM and ASM in the selected fluidizing agent, dichloromethane CH2Cl2, dichlorobenzene or dichlorotoluene or any other fluidizing agent able to well solubilize the mixture CEM/ASM in order to obtain the searched final concentrations after solubilizing CEMs and ASMs in a minimum of 3 milliliters of fluidizing agent. If the selected fluidizing agent is also an ASM compound, so the selected ASM volume is at least 3 milliliters. The given concentrations of ASM2 and ASM9 are related to the added fluidizing agent volume and the concentrations of CEM are related to the added fluidizing agent+ASM volume. The extracting organic composition is then lightly heated so as to promote the solubilization of the organic compounds by means of a heat gun (temperature around 50 to 60° C.) for a few seconds (10 to 30 seconds) until a clear solution is obtained. The composition is thus left for 24 hours at room temperature so as to make sure that the obtained formulation is stable.
These sealed formulations are then orbitally stirred at 500 revolutions/minute for two hours after adding an equivalent volume of water which was distilled twice so as to allow a water saturation of the whole formulation and a pH control at the inlet and at the outlet (pH close to 7, or at least maintained after contact with the saturation water).
3 mL of the prepared extracting organic composition are then taken from the lower phase of the decanted diphasic mixture and transferred to a vial containing 3 mL of the water containing the one or more considered chloride salts (NaCl or others), then the vial is sealed and orbitally stirred (at 500 revolutions per minute) for 2 hours at room temperature (RT), that is to say between 20 and 25° C.
A verification is made to make sure that droplets in the range of 1-2 mm are really present during these stirrings in order to be sure that an equilibrium in the distribution of the considered chloride salt (NaCl or other) is achieved between both liquid phases at the end of stirring. The aspect of the organic and aqueous phases is clear and colorless or slightly turbid.
Once the 2-hour stirring is carried out, the stirring is stopped and the whole is left for decantation for about 10 minutes, at least until both phases are completely separated, at the temperature of the assay. Then, the upper aqueous phase is taken then stirred and diluted in order to analyze its salinity by a ion chromatography (a Metrohm™ device including a cation analyzing column and an anion analyzing column suitable for the ions and for the concentration of the salts which are searched for). Likewise, the chloride salt (NaCl or other) initial aqueous solution is also analyzed by this ion chromatography to determine its cation and chloride molar relative concentration before the extraction. All the extractions and analyses were duplicated.
The considered extracting composition comprises 0.1 mol/L of CEM1 and 3.52 mol/L of ASM2 in dichloromethane CH2Cl2, which was obtained as described above. The initial concentration of the considered salt in water, whether it is LiCl, NaCl, KCl, MgCl2, CaCl2, SrCl2 or BaCl2, is 0.1 mol/L.
After carrying out these 7 specific extractions (duplicated) of salts, the amounts of extracted cations in relative molar percentage before and after extraction at room temperature and at water/extracting formulation iso-volume are indicated in table I: […]

[2] = Complexing constant Log K in methanol at 25° C.; format: binding
Protocol: K is the complexing constant of a CEM and a […] cation in methanol, at 25° C., which is measured according to the standard method of isothermal calorimetric titration.

[3] = Selective extraction from a binary mixture NaCl/CaCl2; details: for % E Ca^++ / % E Na^+: RT, molar %
Description: A brine containing an equimolar mixture of salts, 0.05 mol/L of NaCl and CaCl2 each, which was made as described above, was contacted with two extracting compositions, one of which according to the invention.
Each extracting composition comprises 0.1 mol/L of CEM
[drawing 53] and 2.4 mol/L of ASM9 in 1,2-dichlorobenzene.
A brine containing a mixture of NaCl and CaCl2 is made as described above to obtain the following initial saline concentrations in a mixture: 0.2 Mol/L of NaCl and 0.03 Mol/L of CaCl2. The extracting resin, is composed of 0.1 Mol/L of CEM2, 3.52 Mol/L of ASM2 and a complement of liquid ASM1, which is also used as a fluidizing agent.

[4] = 0.1M CEM + 3.52M ASM2 in CH2Cl2, initial salt 0.1 mol/L, Org./Water = 1, molar %
[5] = 0.1 Mol/L CEM2 + 3.52 Mol/L ASM2 + complement of liquid ASM1, brine 0.2 Mol/L NaCl and 0.03 Mol/L CaCl2
[6] = 0.1 mol/L CEM + 2.4 mol/L ASM9 in 1,2-dichlorobenzene, brine 0.05 mol/L NaCl and CaCl2 each

SMILES: CCN(CC)C(=O)COc1c2cc(C(C)(C)C)cc1Cc1cc(C(C)(C)C)cc(c1OCC(=O)N(CC)CC)Cc1cc(C(C)(C)C)cc(c1OCC(=O)N(CC)CC)Cc1cc(C(C)(C)C)cc(c1OCC(=O)N(CC)CC)Cc1cc(C(C)(C)C)cc(c1OCC(=O)N(CC)CC)Cc1cc(C(C)(C)C)cc(c1OCC(=O)N(CC)CC)C2 [CEM2, 4-tert-butyl-Calix[6]arene hexakis(N,N-diethylacetamide)]
- Extraction rate at room temperature (RT), BaCl2 [1, 4]: 63.2%
- Extraction rate at room temperature (RT), CaCl2 [1, 4]: 57.8%
- Extraction rate at room temperature (RT), KCl [1, 4]: 25.4%
- Extraction rate at room temperature (RT), LiCl [1, 4]: 21.9%
- Extraction rate at room temperature (RT), MgCl2 [1, 4]: 13.5%
- Extraction rate at room temperature (RT), NaCl [1, 4]: 22.7%
- Extraction rate at room temperature (RT), SrCl2 [1, 4]: 63.8%
- Calcium to sodium extraction rate ([1]; solutions containing only one of these salts (example 3)): 2.54
- Log K(Cs^+, MeOH, 25° C.) [2]: 2.8
- Log K(K^+, MeOH, 25° C.) [2]: 3.3
- Log K(Li^+, MeOH, 25° C.) [2]: 2.6
- Log K(Na^+, MeOH, 25° C.) [2]: 2.8
- Log K(Rb^+, MeOH, 25° C.) [2]: 2.6
- % E Ca^++ [3, 5]: 88.0%
- % E Na^+ [3, 5]: 5.0%
- % E Ca^++ [3, 6]: 56.0%
- % E Na^+ [3, 6]: 4.0%
- Ratio of the Ca/Na extraction rates ([3]; 0.2 Mol/L NaCl and 0.03 Mol/L CaCl2 (example 7)): 17.6
- Calcium to sodium extraction rate ([3]; mixture with an iso-concentration of cations (example 6)): 14 times
